The assay has as its system VEGF-induced proliferation of HUVEC cells. As to the kind of experiment: VEGF-induced HUVEC proliferation, MTT assay. It counts as cell-based, human. The note with it: for inhibition of VEGF-induced HUVEC proliferation (in words): 20 μM; for inhibition at 20 µM: Homo sapiens, HUVEC, 48 h, read-out: % Inhibition of Proliferation. As for the experimental part:
The assay was performed as follows. Vascular endothelial growth factor (VEGF, Cat #SRP3182) was purchased from Sigma. […] Stock solutions of all compounds were prepared in DMSO and were serially diluted for cell culture treatment maintaining the final DMSO concentration at less than 1%. Cell proliferation of HUVECs was evaluated through the MTT (3-[4, 5-dimethylthiazol-2-yl]-2, 5-dimethyltetrazolium bromide) colorimetric assay, as previously described.^28 The HUVECs were seeded at a density of 10,000 cells/well in 24 well plates in serum-containing medium and cultured overnight. Cells were starved with 300 μL of assay media (0.1% BSA+0.1% FBS in basal medium) for 24 h. Then, cells were treated with 500 μL of assay medium (control group), VEGF (10 ng/mL, positive control group) or VEGF along with compounds (20 μM). After 48 h of culture, 50 μL of MTT stock (5 mg/mL in PBS) was added to each well and incubated for 2 h at 37° C. to allow the formation of dark blue formazan crystals in the metabolically active cells. The medium was removed, the cells were washed with PBS (pH 7.4), and 100 μL of acidified isopropanol (0.33 mL HCl in 100 mL isopropanol) was added to each well and incubated for 5 min with thorough agitation to solubilize the formazan crystals. An equal volume of the solution was transferred to a 96-well plate and the absorbance was immediately measured using a microplate reader at a wavelength of 570 nm.
(In general: Tetrazolium dyes change colour on reduction, which living cells bring about.)

Where [1] appears, read: 20 μM compound, VEGF 10 ng/mL, relative to VEGF treated cells, mean ± SEM n = 3.

Entries after “also recorded” stand apart in the source; their conditions may differ. Read-outs that look alike come from different tables or passages of the source.

As to `COc1ccc(CCNC2=NS(=O)(=O)c3cc(F)ccc3N2)cc1` [Compound 9a], the inhibition at 20 µM was determined as 70 ± 22%. Also, the “inhibition of VEGF-induced HUVEC proliferation (in words)” value (from here on “inhibition … (in words)”) (VEGF 10 ng/mL) is given as “no appreciable inhibition”.
For the molecule `O=C1Nc2cc(Cl)ccc2S(=O)(=O)N1` [Compound 11b, 6-chloro-3-oxo-3,4-dihydro-2H-1,2,4-benzothiadiazine1,1-dioxide], the inhibition at 20 µM was determined as 0%.
In the case of `CSC1=NS(=O)(=O)c2ccc(Cl)cc2N1` [Compound 13b, 6-Chloro-3-methylsulfanyl-4H-1,2,4-benzothiadiazine 1,1-Dioxide], under setting [1], the inhibition at 20 µM was 21 ± 23%.
As for `CC(C)NC1=NS(=O)(=O)c2ccc(Cl)cc2N1` [Compound 14b, 6-Chloro-3-isopropylamino-4H-1,2,4-benzothiadiazine 1,1-Dioxide], the inhibition at 20 µM is 146 ± 18%.
In the case of `O=S1(=O)N=C(NCc2ccc(F)cc2)Nc2cc(Cl)ccc21` [Compound 17b, 6-chloro-3-((4-fluorobenzyl)amino)-4H-benzo[e][1,2,4]thiadiazine 1,1-dioxide], the inhibition at 20 µM under setting [1] worked out at 0%.
Take `O=S1(=O)N=C(NCCc2ccccc2)Nc2cc(Cl)ccc21` [Compound 18b, 6-chloro-3-(phenethylamino)-4H-benzo[e][1,2,4]thiadiazine 1,1-dioxide]: the inhibition at 20 µM stood at 118 ± 12%. Further, the “inhibition … (in words)” value (VEGF 10 ng/mL) is “suppressed HUVEC proliferation; also recorded: enhanced activity”.
`CCNC1=NS(=O)(=O)c2ccccc2N1` [Compound 19d, 3-(ethylamino)-4H-benzo[e][1,2,4]thiadiazine 1,1-dioxide]: the inhibition at 20 µM under setting [1] turned out to be 81 ± 25%.
Take `COc1ccc(CNC2=NS(=O)(=O)c3ccc(Cl)cc3N2)cc1` [Compound 20b, 6-chloro-3-((4-methoxybenzyl)amino)-4H-benzo[e][1,2,4]thiadiazine 1,1-dioxide]: under “VEGF 10 ng/mL”, the “inhibition … (in words)” value is “suppressed HUVEC proliferation; also recorded: enhanced activity”. For the same molecule, the inhibition at 20 µM under setting [1] amounted to 132 ± 24%.
Take `COc1ccccc1CNC1=NS(=O)(=O)c2ccc(Cl)cc2N1` [Compound 26b, 6-chloro-3-((2-methoxybenzyl)amino)-4H-benzo[e][1,2,4]thiadiazine 1,1-dioxide]: under setting [1], the inhibition at 20 µM came out at 79 ± 26%.
Same read-out and setting: as for `Cc1ccc(CNC2=NS(=O)(=O)c3ccc(Cl)cc3N2)cc1` [Compound 27b, 6-chloro-3-((4-methylbenzyl)amino)-4H-benzo[e][1,2,4]thiadiazine 1,1-dioxide], the figure is 146 ± 18%.
With `COc1cccc(CNC2=NS(=O)(=O)c3ccc(Cl)cc3N2)c1` [Compound 28b, 6-chloro-3-((3-methoxybenzyl)amino)-4H-benzo[e][1,2,4]thiadiazine 1,1-dioxide], the inhibition at 20 µM worked out at 126 ± 26%.
For the molecule `O=S1(=O)N=C(NCc2ccc(F)cc2F)Nc2ccc(Br)cc21` [Compound 29c, 7-bromo-3-((2,4-difluorobenzyl)amino)-4H-benzo[e][1,2,4]thiadiazine 1,1-dioxide], the inhibition at 20 µM under setting [1] stood at 127%.
On the same count and under the same terms, as for `C=CCNC1=NS(=O)(=O)c2ccc(Cl)cc2N1` [Compound 32b, 3-(allylamino)-6-chloro-4H-benzo[e][1,2,4]thiadiazine 1,1-dioxide], the figure is 0%.
Regarding `COc1cccc(CCNC2=NS(=O)(=O)c3ccc(Cl)cc3N2)c1` [Compound 40b, 6-chloro-3-((3-methoxyphenethyl)amino)-4H-benzo[e][1,2,4]thiadiazine 1,1-dioxide], the inhibition at 20 µM stood at 99 ± 22%.
On to `Cc1ccccc1CNC1=NS(=O)(=O)c2ccc(Cl)cc2N1` [Compound 41b, 6-Chloro-3-((2-methylbenzyl)amino)-4H-benzo[e][1,2,4]thiadiazine 1,1-dioxide], for which, for the setting “VEGF 10 ng/mL”, the “inhibition … (in words)” value was “suppressed HUVEC proliferation; also recorded: enhanced activity”. Under setting [1], the inhibition at 20 µM stood at 111 ± 9%.
For `CSC1=NS(=O)(=O)c2cc(F)ccc2N1C` [Compound 42a, 7-fluoro-4-methyl-3-(methylthio)-4H-benzo[e][1,2,4]thiadiazine 1,1-dioxide] the same measures were “no appreciable inhibition” and 41 ± 30%.
